The structures appear in SMILES notation.

One experiment has as its target rat orexin 1 receptor (Rattus norvegicus, UniProt P56718). Description: Rat orexin 1 receptor radioligand binding. The note with it: rat orexin 1 receptor; averages of 2-20 runs; read-out: rOX1 Ki. The procedure, abridged: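 Ki values derive from one-site competition IC50s corrected with the radioligand's predetermined Kd, triplicates per run, averaged over 2-20 runs. Cell homogenates (rat or human OX1R) compete against [^3H]-thiazolyl-oxadiazolyl-pyrrolidine methanone in PBS; 10 μM almorexant sets nonspecific binding; scintillation counting after washing.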

The target in a further experiment is human orexin 1 receptor (Homo sapiens, UniProt O43613). In words: Human orexin 1 receptor radioligand binding. The note with it: human orexin 1 receptor; averages of 2-20 runs; read-out: hOX1 Ki. The procedure:
Data are analyzed using pc-Sandy macro and graphed on Graphpad Prism 5. For analysis, each concentration point is averaged from triplicate values and the averaged values are plotted on Graphpad Prism. The IC50 was determined by applying the following equation (GraphPad Prism 5.0, SanDiego) for one site competition where X=log (concentration) and Y=specific binding. Top denotes the total [^3H]-(1-(5-(2-fluoro-phenyl)-2-methyl-thiazol-4-yl)-1-((S)-2-(5-phenyl-(1,3,4)oxadiazol-2-ylmethyl)-pyrrolidin-1-yl)-methanone) binding, bottom denotes the nonspecific [^3H]-(1-(5-(2-fluoro-phenyl)-2-methyl-thiazol-4-yl)-1-((S)-2-(5-phenyl-(1,3,4)oxadiazol-2-ylmethyl)-pyrrolidin-1-yl)-methanone) binding. Graphpad Prism calculates Ki value from IC50 and the pre-determined Kd values for [^3H]-(1-(5-(2-fluoro-phenyl)-2-methyl-thiazol-4-yl)-1-((S)-2-(5-phenyl-(1,3,4)oxadiazol-2-ylmethyl)-pyrrolidin-1-yl)-methanone) and [3H]-EMPA. The Ki for each compound is then uploaded into 3DX. Each run comprises individual compounds in triplicate. The data in Table 1 and Table 2 represent averages from between 2-20 runs
Rat and Human Orexin 1 Receptor Radioligand Binding Studies
After centrifugation (2K×G, 5 min at 4° C.), the supernatant was aspirated and the pellets frozen and stored at −80° C. […] Each cell pellet from a 15 cm plate was resuspended in 10 mL, stored on ice, and homogenized for 45 sec prior to addition to the reactions. […] The final concentration of DMSO in the reactions is equal to or less than 0.1%. Total and nonspecific binding was determined in the absence and presence of 10 μM almorexant. The total volume of each reaction is 200 μL (20 μL of diluted compounds, 80 μL of [^3H]-(1-(5-(2-fluoro-phenyl)-2-methyl-thiazol-4-yl)-1-((S)-2-(5-phenyl-(1,3,4)oxadiazol-2-ylmethyl)-pyrrolidin-1-yl)-methanone) diluted in PBS and 100 μL of the cell suspension). […] The plates were washed 3 times by aspirating 30 ml PBS through the plates. Plates were dried in 55° C. oven for 60 min, scintillation fluid was added, and the radioactivity was counted on a Topcount (Packard).

For another experiment, the target named is human orexin 2 receptor (Homo sapiens (Human), UniProt O43614). Description: Human orexin 2 receptor radioligand binding. The note with it: human orexin 2 receptor; averages of 2-20 runs; read-out: hOX2 Ki. The procedure, abridged:
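Ki derived from one-site competition IC50 using predetermined Kd of [3H]-EMPA, triplicate points, 2-20 runs averaged. Binding done on homogenized HEK293 cells stably expressing human orexin 2 receptor, DMSO ≤0.1%, with 10 μM almorexant defining nonspecific binding; filtered, washed, scintillation counted.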

Chain of human orexin 2 receptor (O43614 whole entry): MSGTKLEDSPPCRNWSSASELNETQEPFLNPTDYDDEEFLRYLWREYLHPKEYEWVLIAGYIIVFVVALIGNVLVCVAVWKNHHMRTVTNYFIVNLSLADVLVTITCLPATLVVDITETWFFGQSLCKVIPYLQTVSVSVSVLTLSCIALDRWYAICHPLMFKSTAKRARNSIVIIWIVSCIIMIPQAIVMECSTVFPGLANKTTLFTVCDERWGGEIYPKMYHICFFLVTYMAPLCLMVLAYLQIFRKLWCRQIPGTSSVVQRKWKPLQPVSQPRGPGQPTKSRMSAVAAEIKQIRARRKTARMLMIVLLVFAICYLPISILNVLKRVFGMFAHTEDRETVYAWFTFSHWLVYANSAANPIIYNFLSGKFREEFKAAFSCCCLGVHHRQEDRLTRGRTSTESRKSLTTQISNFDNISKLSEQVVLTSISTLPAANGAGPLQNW

Consider `O=C(c1ccccc1-c1ncccn1)N1C[C@H]2C[C@@H](Oc3ncc(C(F)(F)F)cc3F)[C@@H]1C2` [Example 99, ((1S,4R,6R)-6-((3-fluoro-5-(trifluoromethyl)pyridin-2-yl)oxy)-2-azabicyclo[2.2.1]heptan-2-yl)(2-(pyrimidin-2-yl)phenyl)methanone], for which the values for the Ki at rat orexin 1 receptor, on human orexin 1 receptor and on human orexin 2 receptor were 11 nM, 10 nM and 725 nM, respectively.

On to `O=C(c1ccc(F)cc1-c1ncccn1)N1C[C@@H]2CC[C@H]1[C@H](Nc1cnc(C(F)(F)F)cn1)C2` [Example 277, (4-fluoro-2-(pyrimidin-2-yl)phenyl)((1S,4R,6R)-6-((5-(trifluoromethyl)pyrazin-2-yl)amino)-2-azabicyclo[2.2.2]octan-2-yl)methanone], for which the Ki on rat orexin 1 receptor was 17 nM; at human orexin 1 receptor, 15 nM; on human orexin 2 receptor, 998 nM.

Take `O=C(c1ccccc1-c1ncccn1)N1C[C@@H]2CC[C@H]1[C@H](Nc1cnc(C(F)(F)F)cn1)C2` [Example 280, (2-(pyrimidin-2-yl)phenyl)((1S,4R,6R)-6-((5-(trifluoromethyl)pyrazin-2-yl)amino)-2-azabicyclo[2.2.2]octan-2-yl)methanone]: the Ki on rat orexin 1 receptor stood at 7 nM; at human orexin 1 receptor, 4 nM; at human orexin 2 receptor it was 189 nM.

In the case of `Cc1cnc(C(=O)N2C[C@H]3C[C@@H](Nc4cnc(C(F)(F)F)cn4)[C@@H]2C3)c(-n2nccn2)c1` [Example 187, (5-methyl-3-(2H-1,2,3-triazol-2-yl)pyridin-2-yl)((1S,4S,6R)-6-((5-(trifluoromethyl)pyrazin-2-yl)amino)-2-azabicyclo[2.2.1]heptan-2-yl)methanone], the figures for the Ki on rat orexin 1 receptor, on human orexin 1 receptor and on human orexin 2 receptor were 28 nM, 30 nM and 1600 nM, respectively.

For the compound `O=C(c1c(F)cccc1-c1ncccn1)N1C[C@H]2C[C@@H](Nc3ncc(C(F)(F)F)cn3)[C@@H]1C2` [Example 229, (2-fluoro-6-(pyrimidin-2-yl)phenyl)((1S,4S,6R)-6-((5-(trifluoromethyl)pyrimidin-2-yl)amino)-2-azabicyclo[2.2.1]heptan-2-yl)methanone], the Ki on rat orexin 1 receptor is 9 nM; on human orexin 1 receptor, 11 nM; on human orexin 2 receptor, 724 nM.

For `O=C(c1cc(F)ccc1-n1nccn1)N1C[C@H]2C[C@@H](Oc3ccc(Cl)cn3)[C@@H]1C2` [Example 113, ((1S,4R,6R)-6-((5-chloropyridin-2-yl)oxy)-2-azabicyclo[2.2.1]heptan-2-yl)(5-fluoro-2-(2H-1,2,3-triazol-2-yl)phenyl)methanone], the Ki at rat orexin 1 receptor turned out to be 17 nM; at human orexin 1 receptor it was 14 nM; on human orexin 2 receptor, 984 nM.

Turning to `O=C(c1ccccc1-c1ncccn1)N1C[C@H]2C[C@@H](Oc3ccc(C(F)(F)F)cn3)[C@@H]1C2` [Example 297], the Ki on rat orexin 1 receptor worked out at 10 nM; at human orexin 1 receptor it was 10 nM; on human orexin 2 receptor, 606 nM.

For `O=C(c1cc(F)ccc1-c1ncco1)N1C[C@H]2C[C@@H](Oc3ccc(C(F)(F)F)cn3)[C@@H]1C2` [Example 293], the Ki on rat orexin 1 receptor was 16 nM; on human orexin 1 receptor, 26 nM; at human orexin 2 receptor, 535 nM.

As for `Cc1ccc(O[C@@H]2C[C@H]3CC[C@@H]2N(C(=O)c2cccc(F)c2-c2ncccn2)C3)nc1` [Example 267, (3-fluoro-2-(pyrimidin-2-yl)phenyl)((1S,4R,6R)-6-((5-methylpyridin-2-yl)oxy)-2-azabicyclo[2.2.2]octan-2-yl)methanone], the values for the inhibition constant Ki on rat orexin 1 receptor, at human orexin 1 receptor and on human orexin 2 receptor were 26 nM, 19 nM and 1100 nM, respectively.

Take `O=C(c1ccccc1-n1nccn1)N1C[C@H]2C[C@@H](Oc3ccc(Cl)cn3)[C@@H]1C2` [Example 112, (2-(2H-1,2,3-triazol-2-yl)phenyl)((1S,4R,6R)-6-((5-chloropyridin-2-yl)oxy)-2-azabicyclo[2.2.1]heptan-2-yl)methanone]: the inhibition constant Ki at rat orexin 1 receptor stood at 8 nM; at human orexin 1 receptor, 10 nM; at human orexin 2 receptor, 459 nM.

Regarding `O=C(c1cccc(F)c1-c1ncccn1)N1C[C@H]2C[C@@H](Nc3ccc(C(F)(F)F)cn3)[C@@H]1C2` [Example 66, (3-fluoro-2-(pyrimidin-2-yl)phenyl)((1S,4S,6R)-6-((5-(trifluoromethyl)pyridin-2-yl)amino)-2-azabicyclo[2.2.1]heptan-2-yl)methanone], the Ki came out at 2 nM on rat orexin 1 receptor, 5 nM on human orexin 1 receptor and 181 nM at human orexin 2 receptor.

For `O=C(c1cccc(F)c1-c1ncccn1)N1C[C@H]2C[C@@H](N(CC3CC3)c3ccc(C(F)(F)F)cn3)[C@@H]1C2` [Example 161, ((1S,4S,6R)-6-((cyclopropylmethyl)(5-(trifluoromethyl)pyridin-2-yl)amino)-2-azabicyclo[2.2.1]heptan-2-yl)(3-fluoro-2-(pyrimidin-2-yl)phenyl)methanone], the values for the Ki on rat orexin 1 receptor, at human orexin 1 receptor and at human orexin 2 receptor were 14 nM, 5 nM and 384 nM, respectively.

For the compound `O=C(c1cccc(F)c1-c1ncccn1)N1C[C@H]2C[C@@H](Nc3ncc(C(F)(F)F)cn3)[C@@H]1C2` [Example 68, (3-fluoro-2-(pyrimidin-2-yl)phenyl)((1S,4S,6R)-6-((5-(trifluoromethyl)pyrimidin-2-yl)amino)-2-azabicyclo[2.2.1]heptan-2-yl)methanone], the Ki was 7 nM at rat orexin 1 receptor, 8 nM on human orexin 1 receptor and 612 nM on human orexin 2 receptor.

Take `O=C(c1nccnc1-c1ccccc1)N1C[C@H]2C[C@@H](Oc3ccc(C(F)(F)F)cn3)[C@@H]1C2` [Example 93, (3-phenylpyrazin-2-yl)((1S,4R,6R)-6-((5-(trifluoromethyl)pyridin-2-yl)oxy)-2-azabicyclo[2.2.1]heptan-2-yl)methanone]: the Ki at rat orexin 1 receptor was 125 nM; at human orexin 1 receptor it was 76 nM; on human orexin 2 receptor it was 3100 nM.

In the case of `Cc1cnc(N[C@@H]2C[C@H]3C[C@@H]2N(C(=O)c2cccc(F)c2-c2ncccn2)C3)cn1` [Example 219, (3-fluoro-2-(pyrimidin-2-yl)phenyl)((1S,4S,6R)-6-((5-methylpyrazin-2-yl)amino)-2-azabicyclo[2.2.1]heptan-2-yl)methanone], the Ki at rat orexin 1 receptor stood at 20 nM; on human orexin 1 receptor it was 27 nM; on human orexin 2 receptor it was 480 nM.

As for `Cc1cnc(C(=O)N2C[C@H]3C[C@@H](Nc4cnc(C(F)(F)F)cn4)[C@@H]2C3)c(-c2ncccn2)c1` [Example 190, (5-methyl-3-(pyrimidin-2-yl)pyridin-2-yl)((1S,4S,6R)-6-((5-(trifluoromethyl)pyrazin-2-yl)amino)-2-azabicyclo[2.2.1]heptan-2-yl)methanone], the inhibition constant (Ki) at rat orexin 1 receptor was 12 nM; at human orexin 1 receptor, 12 nM; at human orexin 2 receptor, more than 10000 nM.

With `O=C(c1cc(F)ccc1-c1ncccn1)N1C[C@H]2C[C@@H](Oc3ccc(Br)cn3)[C@@H]1C2` [Example 111, ((1S,4R,6R)-6-((5-bromopyridin-2-yl)oxy)-2-azabicyclo[2.2.1]heptan-2-yl)(5-fluoro-2-(pyrimidin-2-yl)phenyl)methanone], the results for the Ki on rat orexin 1 receptor, at human orexin 1 receptor and at human orexin 2 receptor were 5 nM, 5 nM and 458 nM, respectively.

For `O=C(c1ccccc1-n1nccn1)N1C[C@H]2C[C@@H](Nc3ccc(Br)cn3)[C@@H]1C2` [Example 166, (2-(2H-1,2,3-triazol-2-yl)phenyl)((1S,4S,6R)-6-((5-bromopyridin-2-yl)amino)-2-azabicyclo[2.2.1]heptan-2-yl)methanone], the Ki on rat orexin 1 receptor was determined as 2 nM; on human orexin 1 receptor it was 4 nM; at human orexin 2 receptor, 236 nM.

The record behind these values is patent US9611277B2 (Janssen Pharmaceutica NV, priority 2013, dated 2017).
